{"source": "PubChem BioAssay AID1745844", "about": "(Carcinogenic Potency Database (CPDB), 2022)", "system": "rodent lifetime carcinogenesis bioassay, tumor incidence TD50", "experiment": "chronic cancer bioassays in animals – CPDB, compiled studies (AID 1745844)", "note": "Active and inactive are the calls of the source. The rule behind the calls is not given here."}
{"compound": "Cn1cc(OCC(O)CNC(C)(C)C)c2ccccc2c1=O", "note": "(stereo not drawn)", "values": [{"measurement": "carcinogen call", "setting": "mouse, strain Charles River CD1, females, by gavage, site: any site (literature study), lesion: several types, types named in the paper, dosed 80 weeks, study length 80 weeks", "result": "negative (inactive)"}, {"measurement": "carcinogen call", "setting": "mouse, strain Charles River CD1, females, by gavage, site: liver, lesion: one or several types, types not named, dosed 80 weeks, study length 80 weeks", "result": "negative (inactive)"}, {"measurement": "carcinogen call", "setting": "mouse, strain Charles River CD1, females, by gavage, site: lung, lesion: adenocarcinoma, dosed 80 weeks, study length 80 weeks", "result": "negative (inactive)"}, {"measurement": "TD50", "setting": "mouse, strain Charles River CD1, females, by gavage, site: lung, lesion: adenoma, dosed 80 weeks, study length 80 weeks", "result": "843 mg/kg/day (inactive)"}, {"measurement": "TD50", "setting": "mouse, strain Charles River CD1, males, by gavage, site: any site (literature study), lesion: several types, types named in the paper, dosed 80 weeks, study length 80 weeks", "result": "256 mg/kg/day (inactive)"}, {"measurement": "TD50", "setting": "mouse, strain Charles River CD1, males, by gavage, site: liver, lesion: hepatocellular adenoma, dosed 80 weeks, study length 80 weeks", "result": "131 mg/kg/day (inactive)"}, {"measurement": "carcinogen call", "setting": "mouse, strain Charles River CD1, males, by gavage, site: liver, lesion: hepatocellular carcinoma, dosed 80 weeks, study length 80 weeks", "result": "negative (inactive)"}, {"measurement": "TD50", "setting": "mouse, strain Charles River CD1, males, by gavage, site: lung, lesion: adenocarcinoma, dosed 80 weeks, study length 80 weeks", "result": "99.2 mg/kg/day (inactive)"}, {"measurement": "TD50", "setting": "mouse, strain Charles River CD1, males, by gavage, site: lung, lesion: adenoma, dosed 80 weeks, study length 80 weeks", "result": "7200 mg/kg/day (inactive)"}, {"measurement": "TD50", "setting": "rat, strain Charles River CD (Sprague-Dawley), females, by gavage, site: any site (literature study), lesion: several types, types named in the paper, dosed 104 weeks, study length 104 weeks", "result": "40 mg/kg/day (inactive)"}, {"measurement": "carcinogen call", "setting": "rat, strain Charles River CD (Sprague-Dawley), females, by gavage, site: liver, lesion: hepatocellular adenoma, dosed 104 weeks, study length 104 weeks", "result": "negative (inactive)"}, {"measurement": "TD50", "setting": "rat, strain Charles River CD (Sprague-Dawley), males, by gavage, site: any site (literature study), lesion: several types, types named in the paper, dosed 104 weeks, study length 104 weeks", "result": "128 mg/kg/day (inactive)"}, {"measurement": "TD50", "setting": "rat, strain Charles River CD (Sprague-Dawley), males, by gavage, site: liver, lesion: hepatocellular adenoma, dosed 104 weeks, study length 104 weeks", "result": "384 mg/kg/day (inactive)"}, {"measurement": "carcinogen call", "setting": "rat, strain Charles River CD (Sprague-Dawley), males, by gavage, site: liver, lesion: hepatocellular carcinoma, dosed 104 weeks, study length 104 weeks", "result": "negative (inactive)"}]}
{"compound": "CCCCC/C=C\\C/C=C\\CCCCCCCC(=O)O[C@H](COC(=O)CCCCCCCCCCCCCCC)COP(=O)([O-])OCC[N+](C)(C)C", "values": [{"measurement": "carcinogen call", "setting": "rat, strain Wistar, females, in feed, site: liver, lesion: nodular hyperplasia, dosed 104 weeks, study length 104 weeks", "result": "negative (inactive)"}, {"measurement": "TD50", "setting": "rat, strain Wistar, males, in feed, site: liver, lesion: cholangioma, dosed 104 weeks, study length 104 weeks", "result": "42200 mg/kg/day (inactive)"}]}
{"compound": "CC(=O)N[C@@H](CS)C(=O)O", "values": [{"measurement": "carcinogen call", "setting": "rat, strain Fischer 344, males, in feed, site: liver, lesion: several types, types named in the paper, dosed 98 weeks, study length 98 weeks", "result": "negative (inactive)"}]}
{"compound": "ClC1=C(Cl)[C@]2(Cl)[C@@H]3[C@H]4C[C@H]([C@@H]5O[C@H]45)[C@@H]3[C@@]1(Cl)C2(Cl)Cl", "values": [{"measurement": "TD50", "setting": "mouse, strain B6C3F1, females, in feed, site: any site (literature study), lesion: several types, types named in the paper, dosed 80 weeks, study length 90 weeks", "result": "6.88 mg/kg/day (inactive)"}, {"measurement": "TD50", "setting": "mouse, strain B6C3F1, females, in feed, site: lung, lesion: alveolar/bronchiolar adenoma + alveolar/bronchiolar carcinoma, dosed 80 weeks, study length 90 weeks", "result": 67, "unit": "mg/kg/day"}, {"measurement": "TD50", "setting": "mouse, strain B6C3F1, males, in feed, site: any site (literature study), lesion: several types, types named in the paper, dosed 80 weeks, study length 90 weeks", "result": "0.546 mg/kg/day (inactive)"}, {"measurement": "TD50", "setting": "mouse, strain B6C3F1, males, in feed, site: liver, lesion: hepatocellular adenoma + hepatocellular carcinoma + neoplastic nodule, dosed 80 weeks, study length 90 weeks", "result": 0.854, "unit": "mg/kg/day"}, {"measurement": "TD50", "setting": "mouse, strain B6C3F1, males, in feed, site: lung, lesion: alveolar/bronchiolar adenoma + alveolar/bronchiolar carcinoma, dosed 80 weeks, study length 90 weeks", "result": 1.27, "unit": "mg/kg/day"}, {"measurement": "TD50", "setting": "rat, strain Osborne-Mendel, females, in feed, site: adrenal gland, lesion: adenoma, NOS + carcinoma, NOS, dosed 80 weeks, study length 109 weeks", "result": "0.227 mg/kg/day (inactive)"}, {"measurement": "carcinogen call", "setting": "rat, strain Osborne-Mendel, females, in feed, site: any site (literature study), lesion: several types, types named in the paper, dosed 80 weeks, study length 110 weeks", "result": "negative (inactive)"}, {"measurement": "carcinogen call", "setting": "rat, strain Osborne-Mendel, females, in feed, site: any site (literature study), lesion: several types, types named in the paper, dosed 117 weeks, study length 121 weeks", "result": "negative (inactive)"}, {"measurement": "TD50", "setting": "rat, strain Osborne-Mendel, females, in feed, site: liver, lesion: hemangioma, dosed 117 weeks, study length 121 weeks", "result": "42.3 mg/kg/day (inactive)"}, {"measurement": "TD50", "setting": "rat, strain Osborne-Mendel, females, in feed, site: liver, lesion: hepatocellular adenoma + hepatocellular carcinoma + neoplastic nodule, dosed 80 weeks, study length 110 weeks", "result": 7.44, "unit": "mg/kg/day"}, {"measurement": "TD50", "setting": "rat, strain Osborne-Mendel, females, in feed, site: pituitary gland, lesion: adenoma, NOS, dosed 80 weeks, study length 109 weeks", "result": 0.579, "unit": "mg/kg/day"}, {"measurement": "TD50", "setting": "rat, strain Osborne-Mendel, males, in feed, site: adrenal gland, lesion: adenoma, NOS + carcinoma, NOS, dosed 80 weeks, study length 110 weeks", "result": "0.553 mg/kg/day (inactive)"}, {"measurement": "TD50", "setting": "rat, strain Osborne-Mendel, males, in feed, site: adrenal gland, lesion: adenoma, NOS, dosed 80 weeks, study length 110 weeks", "result": 0.66, "unit": "mg/kg/day"}, {"measurement": "TD50", "setting": "rat, strain Osborne-Mendel, males, in feed, site: all sites, lesion: hemangioma, dosed 80 weeks, study length 110 weeks", "result": 0.661, "unit": "mg/kg/day"}, {"measurement": "TD50", "setting": "rat, strain Osborne-Mendel, males, in feed, site: any site (literature study), lesion: several types, types named in the paper, dosed 80 weeks, study length 110 weeks", "result": "0.776 mg/kg/day (inactive)"}, {"measurement": "carcinogen call", "setting": "rat, strain Osborne-Mendel, males, in feed, site: any site (literature study), lesion: several types, types named in the paper, dosed 121 weeks, study length 126 weeks", "result": "negative (inactive)"}, {"measurement": "carcinogen call", "setting": "rat, strain Osborne-Mendel, males, in feed, site: liver, lesion: hemangioma, dosed 121 weeks, study length 126 weeks", "result": "negative (inactive)"}, {"measurement": "TD50", "setting": "rat, strain Osborne-Mendel, males, in feed, site: pancreatic islets, lesion: islet-cell carcinoma, dosed 80 weeks, study length 110 weeks", "result": 1.75, "unit": "mg/kg/day"}]}
{"compound": "CN(N=O)c1ccc(N=O)cc1", "values": [{"measurement": "TD50", "setting": "rat, strain CB, males, i.p., site: liver, lesion: hepatoma, dosed 26 weeks, study length 86 weeks", "result": "1.5 mg/kg/day (inactive)"}, {"measurement": "TD50", "setting": "rat, strain CB, males, i.p., site: peritoneal cavity, lesion: several types, types named in the paper, dosed 26 weeks, study length 86 weeks", "result": 1.3, "unit": "mg/kg/day"}]}
{"compound": "Oc1ccc(Cl)cc1Cl", "values": [{"measurement": "carcinogen call", "setting": "mouse, strain B6C3F1, females, in feed, site: any site (literature study), lesion: several types, types named in the paper, dosed 103 weeks, study length 104 weeks", "result": "negative (inactive)"}, {"measurement": "TD50", "setting": "mouse, strain B6C3F1, males, in feed, site: forestomach, lesion: squamous-cell carcinoma + squamous-cell papilloma, dosed 103 weeks, study length 104 weeks", "result": "12400 mg/kg/day (inactive)"}, {"measurement": "TD50", "setting": "mouse, strain B6C3F1, males, in feed, site: liver, lesion: hepatocellular adenoma + hepatocellular carcinoma + neoplastic nodule, dosed 103 weeks, study length 104 weeks", "result": 458000, "unit": "mg/kg/day"}, {"measurement": "TD50", "setting": "mouse, strain B6C3F1, males, in feed, site: lung, lesion: alveolar/bronchiolar adenoma + alveolar/bronchiolar carcinoma, dosed 103 weeks, study length 104 weeks", "result": 13300, "unit": "mg/kg/day"}, {"measurement": "carcinogen call", "setting": "rat, strain Fischer 344, females, in feed, site: any site (literature study), lesion: several types, types named in the paper, dosed 103 weeks, study length 104 weeks", "result": "negative (inactive)"}, {"measurement": "carcinogen call", "setting": "rat, strain Fischer 344, males, in feed, site: any site (literature study), lesion: several types, types named in the paper, dosed 103 weeks, study length 104 weeks", "result": "negative (inactive)"}]}
